Active and inactive are the calls of the source. The calls are words filed in the database; no cut-off is given here.
How the values were obtained:
[1] = target: Amyloid-beta precursor protein (Homo sapiens) (UniProt P05067); experiment: Inhibition of HFIP-pretreated amyloid beta (1 to 42) (unknown origin) self-induced aggregation at 20 uM incubated for 46 to 48 hrs by thioflavin-T fluorescence assay relative to control
Acetylcholinesterase [2] = target: Acetylcholinesterase (Electrophorus electricus, UniProt O42275); experiment: Inhibition of electric eel AChE using acetylthiocholine iodide as substrate pretreated for 6 mins followed by substrate addition measured up to 180 sec by Ellman's method
Acetylcholinesterase (Electrophorus electricus, UniProt O42275), sequence (O42275 whole entry): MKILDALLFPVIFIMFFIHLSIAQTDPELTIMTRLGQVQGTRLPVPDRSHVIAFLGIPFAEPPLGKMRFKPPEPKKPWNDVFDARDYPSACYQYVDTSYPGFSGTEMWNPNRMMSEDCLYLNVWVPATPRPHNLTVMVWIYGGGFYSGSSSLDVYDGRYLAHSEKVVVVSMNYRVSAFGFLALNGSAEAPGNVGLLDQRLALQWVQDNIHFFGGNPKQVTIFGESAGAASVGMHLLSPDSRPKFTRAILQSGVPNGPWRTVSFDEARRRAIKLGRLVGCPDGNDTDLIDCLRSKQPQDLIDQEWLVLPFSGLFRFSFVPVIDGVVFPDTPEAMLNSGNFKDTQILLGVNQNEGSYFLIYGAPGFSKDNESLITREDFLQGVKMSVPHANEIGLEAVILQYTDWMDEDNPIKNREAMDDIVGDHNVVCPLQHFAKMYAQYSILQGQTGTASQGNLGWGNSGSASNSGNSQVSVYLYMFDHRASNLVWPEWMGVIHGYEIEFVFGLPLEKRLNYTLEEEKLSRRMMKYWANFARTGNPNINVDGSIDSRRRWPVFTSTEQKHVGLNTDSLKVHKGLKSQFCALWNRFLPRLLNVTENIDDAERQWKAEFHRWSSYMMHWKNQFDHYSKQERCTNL

Acetylcholinesterase [3] = target: Acetylcholinesterase (Homo sapiens, UniProt P22303); experiment: Inhibition of human erythrocyte AChE using acetylthiocholine iodide as substrate pretreated for 6 mins followed by substrate addition measured up to 180 sec by Ellman's method
Acetylcholinesterase (Homo sapiens, UniProt P22303), sequence (P22303 whole entry): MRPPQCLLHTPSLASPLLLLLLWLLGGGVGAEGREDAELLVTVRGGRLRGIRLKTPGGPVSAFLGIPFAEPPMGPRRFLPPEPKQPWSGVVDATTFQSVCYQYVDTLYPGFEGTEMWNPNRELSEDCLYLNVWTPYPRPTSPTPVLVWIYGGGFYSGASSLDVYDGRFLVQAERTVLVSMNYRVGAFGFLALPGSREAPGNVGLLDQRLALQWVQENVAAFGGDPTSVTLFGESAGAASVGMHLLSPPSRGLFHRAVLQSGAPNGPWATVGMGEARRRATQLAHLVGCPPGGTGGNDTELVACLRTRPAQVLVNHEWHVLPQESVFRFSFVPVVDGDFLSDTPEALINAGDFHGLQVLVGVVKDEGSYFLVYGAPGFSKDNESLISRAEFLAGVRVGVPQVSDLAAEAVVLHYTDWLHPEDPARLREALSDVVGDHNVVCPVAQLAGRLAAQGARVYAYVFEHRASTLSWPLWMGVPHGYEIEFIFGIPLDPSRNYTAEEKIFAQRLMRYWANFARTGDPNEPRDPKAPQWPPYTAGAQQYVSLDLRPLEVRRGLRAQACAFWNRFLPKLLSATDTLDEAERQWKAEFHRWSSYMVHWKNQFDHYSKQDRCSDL

[4] = Selectivity index, ratio of IC50 for equine serum BuChE to IC50 for Electric eel AChE
[5] = Antioxidant activity assessed as trolox equivalents of DPPH radical scavenging activity at 25 uM after 30 mins by UV-vis spectrophotometry; type: functional
physchem = details: PAMPA
Description: Permeability of the compound at 200 uL after 16 hrs by PAMPA-BBB assay

Cholinesterase = Cholinesterase (Equus caballus, UniProt P81908); experiment: Inhibition of equine serum BuChE using s-butyrylthiocholine iodide as substrate preincubated for 6 mins followed by substrate addition measured up to 180 sec by Ellman's method
Cholinesterase, sequence (P81908 whole entry): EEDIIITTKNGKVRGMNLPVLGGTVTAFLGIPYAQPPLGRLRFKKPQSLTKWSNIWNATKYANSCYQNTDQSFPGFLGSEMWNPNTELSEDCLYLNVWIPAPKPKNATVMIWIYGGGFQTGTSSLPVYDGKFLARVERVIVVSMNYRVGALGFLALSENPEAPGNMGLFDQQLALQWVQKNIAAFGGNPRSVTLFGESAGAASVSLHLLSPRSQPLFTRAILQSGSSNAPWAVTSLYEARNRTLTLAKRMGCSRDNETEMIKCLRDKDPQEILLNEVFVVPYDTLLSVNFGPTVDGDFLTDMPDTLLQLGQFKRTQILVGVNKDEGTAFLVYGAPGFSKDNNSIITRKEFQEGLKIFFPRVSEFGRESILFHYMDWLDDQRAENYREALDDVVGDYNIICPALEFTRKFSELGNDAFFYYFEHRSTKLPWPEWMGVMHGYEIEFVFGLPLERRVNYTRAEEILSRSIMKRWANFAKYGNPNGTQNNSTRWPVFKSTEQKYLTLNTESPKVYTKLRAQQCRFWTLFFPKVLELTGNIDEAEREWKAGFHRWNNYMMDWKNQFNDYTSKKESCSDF

[6] = target: Acetylcholinesterase (Electrophorus electricus) (UniProt O42275); experiment: Mixed-type inhibition of electric eel AChE at 1.25 to 5 nM using varying levels of acetylthiocholine iodide substrate by Lineweaver-Burk plot analysis
Acetylcholinesterase (Electrophorus electricus), sequence (O42275 24-633 limits assumed): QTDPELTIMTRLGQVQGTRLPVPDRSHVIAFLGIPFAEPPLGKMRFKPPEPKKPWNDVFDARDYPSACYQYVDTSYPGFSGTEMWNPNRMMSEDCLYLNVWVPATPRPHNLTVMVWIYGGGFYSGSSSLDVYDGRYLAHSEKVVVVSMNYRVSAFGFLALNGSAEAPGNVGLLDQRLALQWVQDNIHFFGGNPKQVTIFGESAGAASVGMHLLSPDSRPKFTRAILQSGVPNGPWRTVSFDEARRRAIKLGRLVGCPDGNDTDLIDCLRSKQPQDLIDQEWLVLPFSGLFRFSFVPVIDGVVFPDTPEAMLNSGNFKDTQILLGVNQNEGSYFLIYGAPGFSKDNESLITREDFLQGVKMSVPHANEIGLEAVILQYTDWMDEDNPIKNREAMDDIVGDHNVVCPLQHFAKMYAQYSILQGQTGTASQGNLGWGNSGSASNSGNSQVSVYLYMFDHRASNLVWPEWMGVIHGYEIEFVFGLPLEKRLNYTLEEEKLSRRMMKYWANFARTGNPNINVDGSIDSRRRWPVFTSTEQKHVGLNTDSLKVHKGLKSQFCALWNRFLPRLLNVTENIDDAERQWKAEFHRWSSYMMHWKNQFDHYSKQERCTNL

PC-12 [7] = experiment: Cytotoxicity against rat PC12 cells assessed as effect on cell viability at 6 to 100 uM after 24 hrs by MTT assay; type: cell-based; details: pc-12, 24 h
PC-12 [8] = experiment: Neuroprotective activity against H2O2-induced oxidative damage in rat PC12 cells assessed as cell viability at 12.5 uM after 24 hrs by MTT assay relative to control; type: functional; details: PC-12, 24 h, read-out: Activity
PC-12 [9] = experiment: Neuroprotective activity against amyloid beta (1 to 42 residues) induced cell death in rat PC12 cells assessed as cell viability at 1.56 uM preincubated for 2 hrs followed by amyloid beta (1 to 42 residues) addition measured after 24 hrs by MTT assay (reference value: 50.5%); type: functional; details: read-out: Activity
PC-12 [10] = experiment: Neuroprotective activity against amyloid beta (1 to 42 residues) induced cell death in rat PC12 cells assessed as cell viability at 3.12 uM preincubated for 2 hrs followed by amyloid beta (1 to 42 residues) addition measured after 24 hrs by MTT assay (reference value: 50.5%); type: functional; details: read-out: Activity
PC-12 [11] = experiment: Neuroprotective activity against amyloid beta (1 to 42 residues) induced cell death in rat PC12 cells assessed as cell viability at 6.25 uM preincubated for 2 hrs followed by amyloid beta (1 to 42 residues) addition measured after 24 hrs by MTT assay (reference value: 50.5%); type: functional; details: read-out: Activity
PC-12 [12] = experiment: Neuroprotective activity against amyloid beta (1 to 42 residues) induced cell death in rat PC12 cells assessed as cell viability at 12.5 uM preincubated for 2 hrs followed by amyloid beta (1 to 42 residues) addition measured after 24 hrs by MTT assay (reference value: 50.5%); type: functional; details: read-out: Activity
Mus musculus [13] = experiment: Toxicity in Kunming mouse assessed as body weight loss up to 2000 mg/kg, po measured up to 14 days post dose; type: organism-based; details: in vivo, 336 h
Mus musculus [14] = experiment: Toxicity in Kunming mouse assessed as effect on water consumption up to 2000 mg/kg, po measured up to 14 days post dose; type: organism-based; details: in vivo, 336 h
Mus musculus [15] = experiment: Toxicity in Kunming mouse assessed as effect on food consumption up to 2000 mg/kg, po measured up to 14 days post dose; type: organism-based; details: in vivo, 336 h
Mus musculus [16] = experiment: Toxicity in Kunming mouse assessed as mortality up to 2000 mg/kg, po measured up to 14 days post dose; type: organism-based; details: in vivo, 336 h
[17] = target: Amyloid-beta precursor protein (Homo sapiens) (UniProt P05067); experiment: Inhibition of amyloid beta (1 to 42) (unknown origin) self-induced aggregation assessed as reduction in amyloid beta fibrils by transmission electron microscopic analysis
PC-12 [18] = experiment: Neuroprotective activity against H2O2-induced oxidative damage in rat PC12 cells assessed as increase in cell viability at 6.25 uM after 24 hrs by MTT assay; type: functional, cell-based

Amyloid-beta precursor protein (Homo sapiens), sequence (P05067 whole entry): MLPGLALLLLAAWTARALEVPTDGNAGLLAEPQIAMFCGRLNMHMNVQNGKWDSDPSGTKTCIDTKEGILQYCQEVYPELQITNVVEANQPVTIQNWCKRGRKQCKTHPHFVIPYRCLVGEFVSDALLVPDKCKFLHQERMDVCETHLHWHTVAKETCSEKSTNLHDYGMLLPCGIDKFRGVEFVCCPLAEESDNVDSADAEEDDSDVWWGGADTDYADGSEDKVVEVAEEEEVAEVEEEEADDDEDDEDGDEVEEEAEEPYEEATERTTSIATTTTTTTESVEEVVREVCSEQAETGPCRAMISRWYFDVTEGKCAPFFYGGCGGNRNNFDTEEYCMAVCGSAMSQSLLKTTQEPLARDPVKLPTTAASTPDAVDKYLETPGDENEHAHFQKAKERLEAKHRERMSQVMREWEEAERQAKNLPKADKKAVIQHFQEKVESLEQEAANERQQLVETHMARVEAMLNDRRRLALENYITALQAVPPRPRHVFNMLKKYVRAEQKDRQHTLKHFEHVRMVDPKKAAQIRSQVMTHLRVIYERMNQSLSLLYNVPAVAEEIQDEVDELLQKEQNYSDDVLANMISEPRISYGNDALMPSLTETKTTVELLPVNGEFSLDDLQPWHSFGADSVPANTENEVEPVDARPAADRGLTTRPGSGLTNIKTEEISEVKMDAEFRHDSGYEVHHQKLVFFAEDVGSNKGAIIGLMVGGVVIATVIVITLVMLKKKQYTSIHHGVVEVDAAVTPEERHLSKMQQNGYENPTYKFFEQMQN

Row | SMILES | inhibition [1] [%] | IC50 (Acetylcholinesterase [2]) [nM] | IC50 (Acetylcholinesterase [3]) [nM] | Ratio IC50 [4] | Activity [5] [equiv] | further results
1 | COc1cc2c(cc1OC)C(=O)/C(=C/c1cc[n+](Cc3ccccc3)cc1)C2 | 45.6 | 2.9 | 3.4 | > 3450 | 0.51 | 
2 | C[C@]12CC[C@@H]3c4ccc(O)cc4CC[C@H]3[C@@H]1CC[C@@H]2O [ESTRADIOL] |  |  |  |  |  | Papp at 16 h (physchem): 11.3 ×10⁻⁶ cm/s
3 | COc1cc2c(cc1OC)C(=O)/C(=C/c1cc[n+](Cc3ccc(F)cc3)cc1)C2 | 47.6 | 4.6 | 4.1 | 1170 | 0.51 | IC50 (Cholinesterase): 5400 nM
4 | COc1cc2c(cc1OC)C(=O)/C(=C/c1cc[n+](Cc3ccccc3Br)cc1)C2 | 56.7 | 2.9 | 3.8 | > 3450 | 0.37 | 
5 | COc1cc2c(cc1OC)C(=O)/C(=C/c1cc[n+](Cc3cccc(Br)c3)cc1)C2 | 53.4 | 4.4 | 5.2 | > 2270 | 0.32 | 
6 | COc1cc2c(cc1OC)C(=O)/C(=C/c1cc[n+](Cc3ccc(C)cc3)cc1)C2 | 49.9 | 25.6 | 18.6 | > 391 | 0.39 | 
7 | COc1cc2c(cc1OC)C(=O)/C(=C/c1cc[n+](Cc3ccccc3F)cc1)C2.[Br-] | 53.7 |  | 0.8 |  | 0.54 | inhibition [6]: Active; Activity (PC-12 [7]): Non-Toxic; viability at 12.5 µM (PC-12 [8]): 73.2%; viability at 1.56 µM (PC-12 [9]): 53.7%; viability at 3.12 µM (PC-12 [10]): 66.5%; viability at 6.25 µM (PC-12 [11]): 72.3%; viability at 12.5 µM (PC-12 [12]): 76.3%; Activity (Mus musculus [13]): Non-Toxic; Activity (Mus musculus [14]): Non-Toxic; Activity (Mus musculus [15]): Non-Toxic; Activity (Mus musculus [16]): Non-Toxic; inhibition [17]: Active; Activity (PC-12 [18]): Active; Papp at 16 h (physchem): 4.97 ×10⁻⁶ cm/s
8 | COc1cc2c(cc1OC)C(=O)/C(=C/c1cc[n+](Cc3cccc(C)c3)cc1)C2 | 42.6 | 4.2 | 4 | > 2380 | 0.47 | 
9 | COc1cc2c(cc1OC)C(=O)/C(=C/c1cc[n+](Cc3ccc(Br)cc3)cc1)C2 | 50.2 | 77.3 | 69.7 | > 129 | 0.38 | 
10 | COc1cc2c(cc1OC)C(=O)/C(=C/c1cc[n+](Cc3ccc([N+](=O)[O-])cc3)cc1)C2 | 47.2 | 74.6 | 59.5 | > 130 | 0.49 | 
11 | COc1cc2c(cc1OC)C(=O)C(CC1CCN(Cc3ccccc3)CC1)C2 (stereo not given) |  |  |  |  | 0.63 | 
12 | COc1cc2c(cc1OC)C(=O)/C(=C/c1cc[n+](Cc3cccc([N+](=O)[O-])c3)cc1)C2 | 50.8 | 5.9 | 3.6 | > 1690 | 0.33 | 
13 | COc1cc2c(cc1OC)C(=O)/C(=C/c1cc[n+](Cc3cccc(F)c3)cc1)C2 | 43.5 | 3.4 | 2.9 | > 2940 | 0.47 | 
14 | COc1cc2c(cc1OC)C(=O)/C(=C/c1cc[n+](Cc3ccccc3C)cc1)C2 | 38.7 | 5.1 | 5.8 | > 1960 | 0.41 | 

— ChEMBL document CHEMBL4033632, “Design, synthesis and biological activity of novel donepezil derivatives bearing N-benzyl pyridinium moiety as potent and dual binding site acetylcholinesterase inhibitors” (Eur J Med Chem, 2017)
